As usually defined, the IC50 is the midpoint of a concentration-inhibition curve.

This assay deals with KRAS G12C (Homo sapiens, UniProt P01116, G12C). Nature of the assay: GDP-GTP exchange assay (fluorescence based guanine nucleotide exchange, bodipy-GDP for GppNHp, SOS1). It counts as biochemical. As to conditions: bodipy-loaded KRAS G12C, 2 hours pre-incubation with inhibitor, read-out: G12C_exchange (KRAS_G12C exchange assay IC50). The procedure: The inhibitor potency of the exemplified compounds was determined in a fluorescence based guanine nucleotide exchange assay, which measures the exchange of bodipy-GDP (fluorescently labeled GDP) for GppNHp (Non-hydrolyzable GTP analog) to generate the active state of KRAS in the presence of SOS1 (guanine nucleotide exchange factor). Inhibitors were serially diluted in DMSO and a volume of 0.1 μL was transferred to the wells of a black low volume 384-well plate. 5 μL/well volume of bodipy-loaded KRAS G12C diluted to 5 nM in assay buffer (25 mM Hepes pH 7.5, 50 mM NaCl, 10 mM MgCl2 and 0.01% Brij-35) was added to the plate and pre-incubated with inhibitor for 2 hours at ambient temperature. Appropriate controls (enzyme with no inhibitor or with a G12C inhibitor (AMG-510)) were included on the plate. The exchange was initiated by the addition of a 5 μL/well volume containing 1 mM GppNHp and 300 nM SOS1 in assay buffer. The 10 μL/well reaction concentration of the bodipy-loaded KRAS G12C, GppNHp, and SOS1 were 5-25 nM, 500 uM, and 150 nM, respectively. The reaction plates were incubated at ambient temperature for 2 hours, a time estimated for complete GDP-GTP exchange in the absence of inhibitor. For the KRAS G12D and G12V mutants, similar guanine nucleotide exchange assays were used with 2.5 nM as final concentration for the bodipy loaded KRAS proteins and with 4 hours and 3 hours incubation after adding GppNHp-SOS1 mixture for G12D and G12V, respectively. A cyclic peptide described to selectively bind G12D mutant (Sakamoto et al., BBRC 484.3 (2017), 605-611) or internal compounds with confirmed binding were used as positive controls in the assay plates. Fluorescence intensities were measured on a PheraStar plate reader instrument (BMG Labtech) with excitation at 485 nm and emission at 520 nm.
KRAS G12C, sequence (P01116 1-188 isoform P01116-2 G12C): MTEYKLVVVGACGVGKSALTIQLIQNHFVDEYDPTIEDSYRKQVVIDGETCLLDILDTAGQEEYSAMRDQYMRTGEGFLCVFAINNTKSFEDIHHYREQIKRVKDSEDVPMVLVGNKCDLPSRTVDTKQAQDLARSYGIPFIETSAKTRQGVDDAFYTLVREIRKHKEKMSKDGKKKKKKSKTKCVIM
Either GraphPad prism or XLfit was used to analyze the data. The IC50 values were derived by fitting the data to a four parameter logistic equation producing a sigmoidal dose-response curve with a variable Hill coefficient. Prism equation: Y=Bottom+(Top−Bottom)/(1+10^((Log IC50−X)*Hill slope)); XLfit equation: Y=(A+((B−A)/(1+((X/C)^D)))) where X is the logarithm of inhibitor concentration and Y is the response.

With `C=CC(=O)N1CCC(n2c(=O)c(=O)n(-c3c(CC)cccc3CC)c3nc(-c4ccccc4F)c(Cl)cc32)CC1` [Example 1, 1-(1-acryloylpiperidin-4-yl)-7-chloro-4-(2,6-diethylphenyl)-6-(2-fluorophenyl)-1,4-dihydropyrido[2,3-b]pyrazine-2,3-dione], the IC50 was in the range of 5000 to 10000 nM. With `C=CC(=O)N1CC(Cn2c(=O)c(=O)n(-c3c(C)ccnc3C(C)C)c3nc(-c4ccccc4F)c(Cl)cc32)(OC)C1` [Example 41, 1-((1-acryloyl-3-methoxyazetidin-3-yl)methyl)-6-(2-fluorophenyl)-7-chloro-4-(2-isopropyl-4-methylpyridin-3-yl)-1,4-dihydropyrido[2,3-b]pyrazine-2,3-dione] the figure was 100 to 1000 nM.

Regarding `C=CC(=O)N1CCC(n2c(=O)c(=O)n(-c3c(CC)cccc3CC)c3nc(-c4c(O)cccc4F)c(Cl)cc32)CC1` [Example 2, 1-(1-acryloylpiperidin-4-yl)-7-chloro-4-(2,6-diethylphenyl)-6-(2-fluoro-6-hydroxyphenyl)-1,4-dihydropyrido[2,3-b]pyrazine-2,3-dione], the IC50 lay in the range of 1000 to 5000 nM. With `C=CC(=O)N1CC(Cn2c(=O)c(=O)n(-c3c(C(C)C)cccc3C(C)C)c3nc(-c4cccc5ccccc45)c(Cl)cc32)C1` [Example 6, 1-((1-acryloylazetidin-3-yl)methyl)-7-chloro-4-(2,6-diisopropylphenyl)-6-(1-naphthyl)-1,4-dihydropyrido[2,3-b]pyrazine-2,3-dione] the figure was 1000 to 5000 nM. As for `C=CC(=O)N1CC(Cn2c(=O)c(=O)n(-c3c(C(C)C)cccc3C(C)C)c3nc(-c4ccccc4F)c(Cl)cc32)C1` [Example 3, 1-((1-acryloylazetidin-3-yl)methyl)-7-chloro-4-(2,6-diisopropylphenyl)-6-(2-fluorophenyl)-1,4-dihydropyrido[2,3-b]pyrazine-2,3-dione], the IC50 is 100 to 1000 nM. On to `[2H]C([2H])(n1c(=O)c(=O)n(-c2c(C)ccnc2C(C)C)c2nc(-c3c(O)cc(C)cc3F)c(Cl)cc21)C1(F)CN(C(=O)C=C)C1` [Example 48, 1-((1-acryloyl-3-fluoroazetidin-3-yl)methyl-d2)-7-chloro-6-(2-fluoro-6-hydroxy-4-methylphenyl)-4-(2-isopropyl-4-methylpyridin-3-yl)-1,4-dihydropyrido[2,3-b]pyrazine-2,3-dione], for which the IC50 was at most 100 nM. For the molecule `C=CC(=O)N1CC(F)(Cn2c(=O)c(=O)n(-c3c(C)ccnc3C(C)C)c3nc(-c4cccc5cn[nH]c45)c(Cl)cc32)C1` [Example 29, 1-((1-acryloyl-3-fluoroazetidin-3-yl)methyl)-7-chloro-6-(1H-indazol-7-yl)-4-(2-isopropyl-4-methylpyridin-3-yl)-1,4-dihydropyrido[2,3-b]pyrazine-2,3-dione], the half-maximal inhibitory concentration (IC50) fell in the range of 100 to 1000 nM. `C=CC(=O)N1CC(O)(Cn2c(=O)c(=O)n(-c3c(C)ccnc3C(C)C)c3nc(-c4ccccc4F)c(Cl)cc32)C1` [Example 43, 1-((1-acryloyl-3-hydroxyazetidin-3-yl)methyl)-7-chloro-6-(2-fluorophenyl)-4-(2-isopropyl-4-methylpyridin-3-yl)-1,4-dihydropyrido[2,3-b]pyrazine-2,3-dione]: the concentration for half-maximal inhibition (IC50) was in the range of 100 to 1000 nM. As to `[2H]C([2H])(n1c(=O)c(=O)n(-c2c(C)ccnc2C(C)C)c2nc(-c3ccnc(C)c3Cl)c(Cl)cc21)C1(F)CN(C(=O)C=C)C1` [Example 54, 1-((1-acryloyl-3-fluoroazetidin-3-yl)methyl-d2)-7-chloro-6-(3-chloro-2-methylpyridin-4-yl)-4-(2-isopropyl-4-methylpyridin-3-yl)-1,4-dihydropyrido[2,3-b]pyrazine-2,3-dione], the 50% inhibitory concentration (IC50) lay within 100 to 1000 nM. With `C=CC(=O)N1CC(Cn2c(=O)c(=O)n(-c3c(CC)cccc3CC)c3nc(-c4ccccc4F)c(Cl)cc32)C1` [Example 4, 1-((1-acryloylazetidin-3-yl)methyl)-7-chloro-4-(2,6-diethylphenyl)-6-(2-fluorophenyl)-1,4-dihydropyrido[2,3-b]pyrazine-2,3-dione] the figure was 100 to 1000 nM. With `[2H]C([2H])(n1c(=O)c(=O)n(-c2c(C)ccnc2C(C)C)c2nc(-c3ccccc3-c3ccccc3)c(Cl)cc21)C1(F)CN(C(=O)C=C)C1` [Example 55, 6-([1,1′-biphenyl]-2-yl)-1-((1-acryloyl-3-fluoroazetidin-3-yl)methyl-d2)-7-chloro-4-(2-isopropyl-4-methylpyridin-3-yl)-1,4-dihydropyrido[2,3-b]pyrazine-2,3-dione], the IC50 lay in the range of 100 to 1000 nM. Consider `C=CC(=O)N1CC(O)(Cn2c(=O)c(=O)n(-c3c(C)ccnc3C(C)C)c3nc(-c4c(F)ccc(F)c4O)c(Cl)cc32)C1` [Example 44, 1-((1-acryloyl-3-hydroxyazetidin-3-yl)methyl)-7-chloro-6-(3,6-difluoro-2-hydroxyphenyl)-4-(2-isopropyl-4-methylpyridin-3-yl)-1,4-dihydropyrido[2,3-b]pyrazine-2,3-dione], for which the IC50 fell in the range of 100 to 1000 nM. Turning to `[2H]C([2H])(n1c(=O)c(=O)n(-c2c(C)ccnc2C(C)C)c2nc(-c3c(O)cccc3Cl)c(Cl)cc21)C1(F)CN(C(=O)C(=C)F)C1` [Example 50, 7-chloro-6-(2-chloro-6-hydroxyphenyl)-1-((3-fluoro-1-(2-fluoroacryloyl)azetidin-3-yl)methyl-d2)-4-(2-isopropyl-4-methylpyridin-3-yl)-1,4-dihydropyrido[2,3-b]pyrazine-2,3-dione], the 50% inhibitory concentration (IC50) is at most 100 nM.

As for `C=CC(=O)N1CC(F)(Cn2c(=O)c(=O)n(-c3c(C)ccnc3C(C)C)c3nc(-c4cccc5nn[nH]c45)c(Cl)cc32)C1` [Example 30, 1-((1-acryloyl-3-fluoroazetidin-3-yl)methyl)-6-(1H-benzo[d][1,2,3]triazol-7-yl)-7-chloro-4-(2-isopropyl-4-methylpyridin-3-yl)-1,4-dihydropyrido[2,3-b]pyrazine-2,3-dione], the half-maximal inhibitory concentration (IC50) lay within 100 to 1000 nM. Take `C=CC(=O)N1CC(F)(Cn2c(=O)c(=O)n(-c3c(C)ccnc3C(C)C)c3nc(-c4cccc5ccc(=O)[nH]c45)c(Cl)cc32)C1` [Example 32, 1-((1-acryloyl-3-fluoroazetidin-3-yl)methyl)-7-chloro-4-(2-isopropyl-4-methylpyridin-3-yl)-6-(2-oxo-1,2-dihydroquinolin-8-yl)-1,4-dihydropyrido[2,3-b]pyrazine-2,3-dione]: the IC50 was in the range of 100 to 1000 nM. With `[2H]C([2H])(n1c(=O)c(=O)n(-c2c(C)ccnc2C(C)C)c2nc(-c3c(O)cccc3Cl)c(Cl)cc21)C1(F)CN(C(=O)C=C)C1` [Example 49, 1-((1-acryloyl-3-fluoroazetidin-3-yl)methyl-d2)-7-chloro-6-(2-chloro-6-hydroxyphenyl)-4-(2-isopropyl-4-methylpyridin-3-yl)-1,4-dihydropyrido[2,3-b]pyrazine-2,3-dione], the IC50 was at most 100 nM. Take `[2H]C([2H])(n1c(=O)c(=O)n(-c2c(C)ccnc2C(C)C)c2nc(-c3cncc(C)c3C)c(Cl)cc21)C1(F)CN(C(=O)C=C)C1` [Example 52, 1-((1-acryloyl-3-fluoroazetidin-3-yl)methyl-d2)-7-chloro-6-(4,5-dimethylpyridin-3-yl)-4-(2-isopropyl-4-methylpyridin-3-yl)-1,4-dihydropyrido[2,3-b]pyrazine-2,3-dione]: the IC50 was 1000 to 5000 nM. To `C=CC(=O)N1CC(F)(Cn2c(=O)c(=O)n(-c3c(C)ccnc3C(C)C)c3nc(-c4c(F)ccc(O)c4O)c(Cl)cc32)C1` [Example 26, 1-((1-acryloyl-3-fluoroazetidin-3-yl)methyl)-7-chloro-6-(6-fluoro-2,3-dihydroxyphenyl)-4-(2-isopropyl-4-methylpyridin-3-yl)-1,4-dihydropyrido[2,3-b]pyrazine-2,3-dione] belongs 100 to 1000 nM. Take `C=CC(=O)N1CC(F)(Cn2c(=O)c(=O)n(-c3c(C)ccnc3C(C)C)c3nc(-c4cccnc4N)c(Cl)cc32)C1` [Example 31, 1-((1-acryloyl-3-fluoroazetidin-3-yl)methyl)-6-(2-aminopyridin-3-yl)-7-chloro-4-(2-isopropyl-4-methylpyridin-3-yl)-1,4-dihydropyrido[2,3-b]pyrazine-2,3-dione]: the IC50 was in the range of 100 to 1000 nM.

As to `[2H]C([2H])(n1c(=O)c(=O)n(-c2c(C)ccnc2C(C)C)c2nc(-c3cccc4ccccc34)c(Cl)cc21)C1(F)CN(C(=O)C=C)C1` [Example 53, 1-((1-acryloyl-3-fluoroazetidin-3-yl)methyl-d2)-7-chloro-4-(2-isopropyl-4-methylpyridin-3-yl)-6-(naphthalen-1-yl)-1,4-dihydropyrido[2,3-b]pyrazine-2,3-dione], the IC50 was at most 100 nM.

(Values after patent US11767320B2, “Bicyclic dione compounds as inhibitors of KRAS” (INCYTE CORPORATION, priority 2020, dated 2023).)
